Results from US9067941B2, “Fused heterocyclic azaindane carboxamide CGRP receptor antagonists” (Merck Sharp & Dohme Corp., priority 2010, dated 2015).

target: T1, recombinant human CL receptor/RAMP1 (Homo sapiens, UniProt O60894+Q16602); experiment: Recombinant receptor binding assay (125I-hCGRP displacement, membranes of HEK 293 cells); conditions: 10 pM 125I-hCGRP, 3 h at room temperature
T1 construct: expressed in transfected cells; membranes
Method: RECOMBINANT RECEPTOR: Human CL receptor (Genbank accession number L76380) was subcloned into the expression vector pIREShyg2 (BD Biosciences Clontech) as a 5′NheI and 3′ PmeI fragment. Human RAMP1 (Genbank accession number A3001014) was subcloned into the expression vector pIRESpuro2 (BD Biosciences Clontech) as a 5′NheI and 3′NotI fragment. HEK 293 cells (human embryonic kidney cells; ATCC #CRL-1573) were cultured in DMEM with 4.5 g/L glucose, 1 mM sodium pyruvate and 2 mM glutamine supplemented with 10% fetal bovine serum (FBS), 100 units/mL penicillin and 100 μg/mL streptomycin, and maintained at 37° C. and 95% humidity. Cells were subcultured by treatment with 0.25% trypsin with 0.1% EDTA in HBSS. Stable cell line generation was accomplished by co-transfecting 10 μg of DNA with 30 μg Lipofectamine 2000 (Invitrogen) in 75 cm^2 flasks. CL receptor and RAMP1 expression constructs were co-transfected in equal amounts. Twenty-four hours after transfection the cells were diluted and selective medium (growth medium+300 μg/mL hygromycin and 1 μg/mL puromycin) was added the following day. A clonal cell line was generated by single cell deposition utilizing a FACS Vantage SE (Becton Dickinson). Growth medium was adjusted to 150 μg/mL hygromycin and 0.5 μg/mL puromycin for cell propagation.
RECOMBINANT RECEPTOR BINDING ASSAY: Cells expressing recombinant human CL receptor/RAMP1 were washed with PBS and harvested in harvest buffer containing 50 mM HEPES, 1 mM EDTA and Complete™ protease inhibitors (Roche). The cell suspension was disrupted with a laboratory homogenizer and centrifuged at 48,000 g to isolate membranes. The pellets were resuspended in harvest buffer plus 250 mM sucrose and stored at −70° C. For binding assays, 20 μg of membranes were incubated in 1 mL binding buffer (10 mM HEPES, pH 7.4, 5 mM MgCl2, and 0.2% BSA) for 3 h at room temperature containing 10 pM ^125I-hCGRP (GE Healthcare) and antagonist. The assay was terminated by filtration through 96-well GFB glass fiber filter plates (PerkinElmer) that had been blocked with 0.05% polyethyleneimine. The filters were washed 3 times with ice-cold assay buffer (10 mM HEPES, pH 7.4, and 5 mM MgCl2). Scintillation fluid was added and the plates were counted on a Topcount (Packard). Non-specific binding was determined and the data analysis was carried out with the apparent dissociation constant (Ki) determined by using a non-linear least squares fitting the bound CPM data to the equation below:
[formula] Where Y is observed CPM bound, Ymax is total bound counts, Ymin is non specific bound counts, (Ymax−Ymin) is specific bound counts, % Imax is the maximum percent inhibition, % I min is the minimum percent inhibition, radiolabel is the probe, and the Kd is the apparent dissociation constant for the radioligand for the receptor as determined by hot saturation experiments.

T1 sequence (Q16602 23-461): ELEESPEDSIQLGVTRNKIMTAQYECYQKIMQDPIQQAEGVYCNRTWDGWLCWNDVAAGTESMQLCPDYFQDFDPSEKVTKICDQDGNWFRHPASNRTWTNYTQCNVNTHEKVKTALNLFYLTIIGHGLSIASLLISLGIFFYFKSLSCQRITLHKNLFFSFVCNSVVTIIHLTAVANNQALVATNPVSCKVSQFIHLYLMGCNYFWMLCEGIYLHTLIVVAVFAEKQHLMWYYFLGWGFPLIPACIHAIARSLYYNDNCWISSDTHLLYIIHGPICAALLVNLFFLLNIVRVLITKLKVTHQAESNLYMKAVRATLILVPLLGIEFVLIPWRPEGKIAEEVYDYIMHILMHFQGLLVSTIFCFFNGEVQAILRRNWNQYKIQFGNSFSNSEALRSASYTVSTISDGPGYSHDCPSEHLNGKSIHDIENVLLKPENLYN
T1 sequence (O60894 27-148): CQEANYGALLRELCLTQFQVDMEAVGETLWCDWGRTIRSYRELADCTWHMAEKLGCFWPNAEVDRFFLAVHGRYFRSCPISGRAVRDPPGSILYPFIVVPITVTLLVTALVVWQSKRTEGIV

| SMILES | Ki [nM] |
| --- | --- |
| O=C(N[C@H]1C[C@@H](c2cccc(F)c2F)Cn2c(CC(F)(F)F)nnc21)c1cnc2c(c1)C[C@@]1(C2)C(=O)Nc2ncccc21 [Example 1.24, (6S)—N-[(6S,8S)-6-(2,3-Difluorophenyl)-3-(2,2,2-trifluoroethyl)-5,6,7,8-tetrahydro[1,2,4]triazolo[4,3-a]pyridin-8-yl]-2′-oxo-1′,2′,5,7-tetrahydrospiro[cyclopenta[b]pyridine-6,3′-pyrrolo[2,3-b]pyridine]-3-carboxamide] | 0.19 |
| C[C@@H]1[C@H](c2ccccc2)C[C@H](NC(=O)c2cnc3c(c2)C[C@@]2(C3)C(=O)Nc3ncccc32)c2ncc(C(C)(C)O)n21 [Example 1.26, (6S)—N-[(5R,6S,8S)-3-(2-Hydroxypropan-2-yl)-5-methyl-6-phenyl-5,6,7,8-tetrahydroimidazo[1,2-a]pyridin-8-yl]-2′-oxo-1′,2′,5,7-tetrahydrospiro[cyclopenta[b]pyridine-6,3′-pyrrolo[2,3-b]pyridine]-3-carboxamide] | 0.14 |
| C[C@@H]1[C@H](c2ccccc2)C[C@H](NC(=O)c2cnc3c(c2)C[C@@]2(C3)C(=O)Nc3ncccc32)c2nnc(C3(C(F)(F)F)CC3)n21 [Example 1.27, (6S)—N-{(5R,6S,8S)-5-Methyl-6-phenyl-3-[1-(trifluoromethyl)cyclopropyl]-5,6,7,8-tetrahydro[1,2,4]triazolo[4,3-a]pyridin-8-yl}-2′-oxo-1′,2′,5,7-tetrahydrospiro[cyclopenta[b]pyridine-6,3′-pyrrolo[2,3-b]pyridine]-3-carboxamide] | 0.36 |
| C[C@@H]1[C@H](c2ccccc2)C[C@H](NC(=O)c2cnc3c(c2)C[C@@]2(C3)C(=O)Nc3ncncc32)c2ncc(C(C)(C)O)n21 [Example 2.1, (6S)—N-[(5R,6S,8S)-3-(2-Hydroxypropan-2-yl)-5-methyl-6-phenyl-5,6,7,8-tetrahydroimidazo[1,2-a]pyridin-8-yl]-6′-oxo-5,6′,7,7′-tetrahydrospiro[cyclopenta[b]pyridine-6,5′-pyrrolo[2,3-d]pyrimidine]-3-carboxamide] | 0.56 |

Compounds with a lower Ki, results first:

| Ki [nM] | SMILES |
| --- | --- |
| 0.06 | C[C@@H]1[C@H](c2ccccc2)C[C@H](NC(=O)c2cnc3c(c2)C[C@@]2(C3)C(=O)Nc3ncccc32)c2ncc(CC(F)(F)F)n21 [Example 1.25] |
| 0.05 | O=C(N[C@H]1C[C@@H](c2cccc(F)c2F)Cn2c(CC(F)(F)F)cnc21)c1cnc2c(c1)C[C@@]1(C2)C(=O)Nc2ncccc21 [Example 1.2, (6S)—N-[(6S,8S)-6-(2,3-Difluorophenyl)-3-(2,2,2-trifluoroethyl)-5,6,7,8-tetrahydroimidazo[1,2-a]pyridin-8-yl]-2′-oxo-1′,2′,5,7-tetrahydrospiro[cyclopenta[b]pyridine-6,3′-pyrrolo[2,3-b]pyridine]-3-carboxamide] |
| 0.02 | COC(C)(C)c1cnc2n1C[C@H](c1cccc(F)c1F)C[C@@H]2NC(=O)c1cnc2c(c1)C[C@@]1(C2)C(=O)Nc2ncccc21 [Example 1.11, (6S)—N-[(6S,8S)-6-(2,3-Difluorophenyl)-3-(2-methoxypropan-2-yl)-5,6,7,8-tetrahydroimidazo[1,2-a]pyridin-8-yl]-2′-oxo-1′,2′,5,7-tetrahydrospiro[cyclopenta[b]pyridine-6,3′-pyrrolo[2,3-b]pyridine]-3-carboxamide] |
